Values belong to the compound of their own block, whether it stands above or below them.
Assays:
Type in all cases: biochemical
[1] = target: T1, QuantiLum Luciferase (firefly luciferase) (Photinus pyralis, UniProt P08659); assay: Light emission of QuantiLum firefly luciferase with luciferin derivatives; conditions: for Light reading (Turner 20/20) at time 0: 0 min; for Light reading (Turner 20/20) at time 7: 7 min; for Light reading (Turner 20/20) at time 15: 15 min; for Light reading (Turner 20/20) at time 22: 22 min; for Light reading (Turner 20/20) at time 30: 30 min; for Light reading (Turner 20/20) at time 45: 45 min; for Light reading (Turner 20/20) at time 60: 60 min; for Light emission, Alone: Alone (no addition)
T1 construct: purchased Promega Corporation El 70
Experimental: Gel and HPLC stop solution. Solid EDTA (free acid) was placed in a beaker with water and the pH of the solution adjusted to pH 7.0. The solution was then adjusted in volume to produce a solution 400 mM in EDTA.
Enzyme stop solution. A solution was prepared containing 20 mM Bis Tris, pH 6.5, 2 mM EDTA and 1 mg/ml bovine serum albumin.
Reaction buffer (2×). A solution was made containing 100 mM HEPES buffer, pH 8.0; 10 mM MgCl2.
DTT stock. Solid DTT (dithiothreitol) was dissolved in water and then adjusted to pH 8.0 with solid sodium hydroxide. The solution was then adjusted in volume to produce a solution 1 M in DTT.
(§1) After producing the solutions in Table 37, the volume of all reactions was adjusted to 990 μl with water. […] While the light reading was being taken, a 10 μl sample of the reaction was diluted to 500 μl with enzyme stop solution (cooled on ice to 4° C.) mixed and placed on ice and a second sample of 90 μl of reaction was added to 10 μl of Gel/HPLC stop and the tube placed at −20° C. A timer was started with the start of the first reaction and the start times of the remaining reactions was noted. At 15, 30, 45 and 60 minutes, each reaction was sampled as above and the light produced in the luminometer tubes was measured. At 7 and 22 minutes, the light produced in the luminometer tubes was read, but the reactions were not sampled.
as §1, with “40,” for “37,”, “−200” for “−20°”
The DTT, Coenzyme A, and QuantiLum stock solutions are the same as those described herein.
This solution was diluted 1:1 with water to produce an enzyme solution labeled “No addition.” This solution was diluted 1:1 with 400 mM DTT, pH 8.0 to produce a solution labeled+DTT. This solution was diluted 1: 1 with 4 mM Coenzyme A to produce a solution labeled+Co A. Finally, this solution was diluted 1: 1 with a solution having both 4 mM Coenzyme A and 400 mM DTT to produce a solution labeled+Co A & DTT.
50 μl samples of these solutions were placed in the wells of luminometer microtiter plates, row A to row G, respectively. Row H of the plates was given 50 μl of water.
Reactions in these plates were initiated by addition of 50 μl of solution containing QuantiLum luciferase using a 12 channel micropipette. The solutions added to the rows were: columns 1, 5, and 9—no addition solution; columns 2, 6, and 10—+Co A solution; columns 3, 7, and 11—+DTT solution, and; columns 4, 8, and 12—+Co A and DTT solution. After addition of the enzyme solution to the first row on every plate, a timer was started. After addition of the enzyme solution to the last row on each plate, the plate was sealed and read on a Veritas luminometer.

[2] = target: T1, QuantiLum Luciferase (firefly luciferase); assay: Residual active QuantiLum luciferase after reaction with derivative (Steady Glo); conditions: no additive (reactions 3A, 4A)
Experimental: as §1
After all samples were taken, 50 μl of the sample diluted into enzyme stop solution was mixed with 50 μl of Steady Glo Luciferase Reagent (Promega) and the light produced measured after incubating at room temperature for 10 minutes. This measured the active luciferase in the initial reaction.
as §1, with “40,” for “37,”, “−200” for “−20°”

[3] = system: thermostable luciferase (Luc 146-1H2); assay: Light emission of thermostable luciferase with luciferin derivatives; conditions: 100 μM each
Experimental: This stock was used to produce enzyme stock solution having of 200 μg/ml enzyme solution in 1 mg/ml BSA, 200 mM HEPES buffer, pH 8.0, 20 mM MgCl2.
Solutions were made using a 1 M DTT solution, pH adjusted to 8.0, a 20 mM Coenzyme A solution in water (both described in examples above), a 100 mM ATP solution and water to create the following solutions: Sol′ A, 100 μM ATP; Sol′B, 100 μM ATP, 4 mM Coenzyme A; Sol′n C, 100 μM ATP, 400 mM DTT, and; Sol′n D, 100 μM ATP, 4 mM Coenzyme A and 400 mM DTT.
After assembly, the reactions were initiated by addition of 25 μl of the thermostable luciferase stock solution above and mixing the tube contents. A 50 μl sample was immediately removed and placed in a luminometer tube and the light read and the tube then replaced in a tube rack at room temperature. While the light reading was being taken, a 5 μl sample of the remaining reaction (which was kept at room temperature) was diluted into 495 μl of 50 mM BisTris, pH 6.5, 1 mg/ml BSA, 1 mM EDTA prechilled to 4° C. and the tube mixed and placed on ice. The light produced by the samples in the luminometer tubes were re-read at 20, 40, 60, 90 and 120 minutes post enzyme addition. Additional 5 μl samples were taken and diluted as above at 60 and 120 minutes post enzyme addition. Once all these readings and samples were taken, 50 μl of the diluted samples was mixed with 50 μl of Steady Glo in luminometer tubes, the tubes incubated 10 minutes […] then the light produced was read on a Turner TD 20/20 luminometer.

T1 sequence (P08659 whole entry): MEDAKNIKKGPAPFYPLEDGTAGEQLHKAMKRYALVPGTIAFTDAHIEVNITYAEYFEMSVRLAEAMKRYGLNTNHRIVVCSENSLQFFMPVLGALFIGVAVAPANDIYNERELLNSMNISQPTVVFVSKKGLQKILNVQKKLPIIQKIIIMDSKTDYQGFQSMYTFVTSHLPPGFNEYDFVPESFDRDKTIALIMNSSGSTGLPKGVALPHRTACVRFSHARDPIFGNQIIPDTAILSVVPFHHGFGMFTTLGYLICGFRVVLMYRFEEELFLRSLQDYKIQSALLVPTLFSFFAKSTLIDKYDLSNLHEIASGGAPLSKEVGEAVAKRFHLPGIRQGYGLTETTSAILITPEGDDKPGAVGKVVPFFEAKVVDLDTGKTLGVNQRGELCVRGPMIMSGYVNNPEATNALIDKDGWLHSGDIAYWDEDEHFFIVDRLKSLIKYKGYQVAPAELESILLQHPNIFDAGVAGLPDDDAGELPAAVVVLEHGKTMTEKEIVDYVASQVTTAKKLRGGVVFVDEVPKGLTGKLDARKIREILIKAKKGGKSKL

Structure (SMILES): O=C(O)[C@H]1CSC(c2nc3ccc(OCCO)cc3s2)=N1 [2 hydroxyethoxyluciferin derivative, 6′-(2-hydroxyethoxyl) luciferin]
Light reading (Turner 20/20) at time 0 ([1]; +Co A): 810,864
Light reading (Turner 20/20) at time 7 ([1]; +Co A): 125,718
Light reading (Turner 20/20) at time 15 ([1]; +Co A): 61,287
Light reading (Turner 20/20) at time 22 ([1]; +Co A): 326,424
Light reading (Turner 20/20) at time 30 ([1]; +Co A): 169,972
Light reading (Turner 20/20) at time 45 ([1]; +Co A): 78,909
Light reading (Turner 20/20) at time 60 ([1]; +Co A): 45,156
Light reading (Turner 20/20) at time 0 ([1]; +DTT): 2,515,513
Light reading (Turner 20/20) at time 7 ([1]; +DTT): 294,885
Light reading (Turner 20/20) at time 15 ([1]; +DTT): 146,849
Light reading (Turner 20/20) at time 22 ([1]; +DTT): 335,031
Light reading (Turner 20/20) at time 30 ([1]; +DTT): 237,487
Light reading (Turner 20/20) at time 60 ([1]; +DTT): 67,064
Light reading (Turner 20/20) at time 0 ([1]; No Additive): 749,597
Light reading (Turner 20/20) at time 7 ([1]; No Additive): 114,541
Light reading (Turner 20/20) at time 15 ([1]; No Additive): 63,691
Light reading (Turner 20/20) at time 22 ([1]; No Additive): 259,945
Light reading (Turner 20/20) at time 30 ([1]; No Additive): 233,600
Light reading (Turner 20/20) at time 45 ([1]; No Additive): 51,233
Light reading (Turner 20/20) at time 60 ([1]; No Additive): 44,782
Light reading (Turner 20/20) at time 0 ([1]; no ATP): 87
Light reading (Turner 20/20) at time 7 ([1]; no ATP): 106
Light reading (Turner 20/20) at time 15 ([1]; no ATP): 387,497
Light reading (Turner 20/20) at time 22 ([1]; no ATP): 218,745
Light reading (Turner 20/20) at time 45 ([1]; no ATP): 11,499
Light reading (Turner 20/20) at time 60 ([1]; no ATP): 20,100
loss of luciferase activity on transformation of substrate [2]: significant and substantial reduction in enzyme activity

Structure (SMILES): O=C(O)C1CSC(c2nc3ccc(NCCCO)cc3s2)=N1 (stereo not shown) [N-(3-hydroxypropyl)-aminoluciferin]
luciferase substrate [1]: substrate for luciferase that provides sufficient light output for a luminescence reaction

brightness relative to amino luciferin [3]: only about half as bright
Structure (SMILES): CN(C)c1ccc2nc(C3=NC(C(=O)O)CS3)sc2c1 (stereo not shown) [dimethyl amino luciferin]

Structure (SMILES): O=C(O)[C@H]1CSC(c2nc3ccc(OCc4ccccc4)cc3s2)=N1 [luciferin-6-benzylether, reference compound]
Light emission, Co A ([1]; Derivative Conc. 3.13 μM, +Co A): 55778
Light emission, Co A + DTT ([1]; Derivative Conc. 3.13 μM): 80626
Light emission, DTT ([1]; Derivative Conc. 3.13 μM, +DTT): 86445
Light emission, Alone ([1]; Derivative Conc. 3.13 μM): 32994
Light emission, Co A ([1]; Derivative Conc. 6.25 μM, +Co A): 58288
Light emission, Co A + DTT ([1]; Derivative Conc. 6.25 μM): 105912
Light emission, DTT ([1]; Derivative Conc. 6.25 μM, +DTT): 100044
Light emission, Alone ([1]; Derivative Conc. 6.25 μM): 38838
Light emission, Co A ([1]; Derivative Conc. 25 μM, +Co A): 53097
Light emission, Co A + DTT ([1]; Derivative Conc. 25 μM): 90306
Light emission, DTT ([1]; Derivative Conc. 25 μM, +DTT): 84034
Light emission, Alone ([1]; Derivative Conc. 25 μM): 40093
Light emission, Co A ([1]; Derivative Conc. 50 μM, +Co A): 38349
Light emission, Co A + DTT ([1]; Derivative Conc. 50 μM): 98716
Light emission, DTT ([1]; Derivative Conc. 50 μM, +DTT): 80001
Light emission, Alone ([1]; Derivative Conc. 50 μM): 30609
Light emission, Co A ([1]; Derivative Conc. 100 μM, +Co A): 33199
Light emission, Co A + DTT ([1]; Derivative Conc. 100 μM): 64460
Light emission, DTT ([1]; Derivative Conc. 100 μM, +DTT): 54592
Light emission, Alone ([1]; Derivative Conc. 100 μM): 31581

From patent US10745365B2, “Luminogenic and fluorogenic compounds and methods to detect molecules or conditions” (Promega Corporation, priority 2005, dated 2020)
